# Laboratory results taken from patent US6197225A, “Chromene compound” (Tokuyama Corporation, priority 1997, dated 2001).
# How the values were obtained:
# [1] = Photochromic properties of cast polymer (2 mm thick) under xenon lamp irradiation for 120 seconds; format: physicochemical
# Method: 0.04% by weight of the chromene compound obtained in Example 1 was added to 70 parts of 4G, 15 parts of 3G, 10 parts of GMA, 5 parts of HEMA and 1 part of perbutyl ND, and was mixed together to a sufficient degree. The mixture solution was poured into a mold constituted by a glass plate and a gasket of an ethylene/vinyl acetate copolymer, and was cast-polymerized. By using an air furnace, the polymerization was conducted in a manner that the temperature was gradually raised from 30° C. to 90° C. over a period of 18 hours, and was held at 90° C. for 2 hours. After the polymerization, the polymer was taken out from the glass mold.
# By using a xenon lamp, L-2480 (300 W) SHL-100, manufactured by Hamamatsu Photonics Co., the obtained polymer (2 mm thick) was irradiated with a beam of an intensity of 365 nm=2.4 mW/cm^2 and 245 nm=24 μW/cm^2 on the surface of the polymer for 120 seconds through an aero-mass filter (manufactured by Corning Co.) at 20° C.±1° C. to develop color and to measure the photochromic properties which were expressed in the following manner.
# 1 Maximum absorption wavelength (λmax): λmax of the polymer after it has developed color was found by using a spectrophotometer (instantaneous multi-channel photo-detector, MCPD1000) manufactured by Otsuka Denshi Kogyo Co.
# 2 Initial color ( ε(0)): Absorbency of the polymer in a non-irradiated state at a wavelength same as the maximum absorption wavelength of when it is irradiated with light.
# 3 Color density (-)=ε(120)-ε(0). ε(120): Absorbency of the polymer at a maximum absorption wavelength after it was irradiated for 120 seconds under the above-mentioned conditions.
# 4 Color-developing sensitivity (-/min.)=Saturated color density/xenon irradiation time.
# Rate of increase in the color density per a unit time until the color density is saturated.
# 5 Color fading rate [t1/2 (min.)]=time required until the absorbency of the polymer drops down to one-half of [ε(120)-ε(0)] after irradiated for 120 seconds.
# (§1) Photochromic polymers were prepared in the same manner as in Example 42 but using the chromene compounds obtained in Examples 2 to 41, and their maximum absorption wavelengths, color densities, fading rates, changes in the coloring degrees and durabilitys were measured.
# (§2) For the purpose of comparison, furthermore, the compounds represented by the following formulas (a), (b), (c), (d), (e) and (f) were measured for their maximum absorption wavelengths, color densities, fading rates, changes in the coloring degrees and durabilitys.
# (§3) The procedure was carried out in the same manner as in Example 42 but using 100 parts of AC1 and 133 parts of BC1, the sum of the amounts of AC1 and BC1 being 0.04% by weight. The obtained photochromic polymer was measured for its maximum absorption wavelength, initial color, color density, color-developing sensitivity, fading rate, durability and change in the coloring degree.
# (§4) The procedure was carried out in the same manner as in Example 83 but using the known chromene compounds shown in Table 6 instead of the chromene compound used in Example 83. […]
# [2] = Aging promotion testing: sunlight 30 min / fading one hour cycles, 10 days (durability, coloring degree); format: physicochemical
# Method: In order to promote the aging, furthermore, the following testing was conducted. That is, the obtained photochromic polymer was irradiated with sunlight for 30 minutes to develop color, and its color was permitted to fade for one hour in the light of a fluorescent lamp. This cycle was repeated three times a day for a total of 10 days.
# The photochromic properties before and after aged were evaluated by evaluating the color densities before and after aged. The initial color density (T0) and the color density (T30) ten days after the aging promotion testing were measured, and the durability was expressed as described below.
# Furthermore, the coloring degrees of before developing color were measured before and after aged by using a color difference meter (SM-4) manufactured by Suga Shikenki Co.
# 7 Coloring degree before being aged=YI(0).
# 8 Change in the coloring degree (ΔYI)=YI(10)-YI(0)
# YI(10): coloring degree after aged
# as §1, §2, §3, §4
# The obtained polymer (2 mm thick) was caused to develop color outdoors, and tones of the developed color were observed by eyes 30 seconds and 15 minutes after it was brought to the outdoors, and uniformity in the step of developing color was evaluated. […] Furthermore, the aging promoting testing was conducted in the same manner as in Example 42 to find a coloring degree (YI(0)) before aged and a change in the coloring degree (ΔY).
# [3] = single chromene compound 0.04% by weight in polymer, 20° C., Table 5
# [4] = single chromene compound 0.04% by weight in polymer, 120 seconds, 20° C., Table 5
# [5] = YI(10)-YI(0), single chromene compound in polymer, 10 days aging, Table 5
# [6] = single chromene compound in polymer, 10 days aging, Table 5
# [7] = chromene composition, or other chromene C1-C4, 10 days aging, Table 6
SMILES,"Maximum absorption wavelength λmax [1, 3] [nm]","Color density ε(120)-ε(0) [1, 4]","Change in the coloring degree ΔYI [2, 5]","Light resistance (durability) [2, 6] [%]","λ max ([1]; chromene composition, or other chromene C1-C4, 0.04% by weight in polymer, Table 6) [nm]","Color density ε(120)-ε(0) ([1]; chromene composition, or other chromene C1-C4, 120 seconds, Table 6)","Initial color ε(0) ([1]; chromene composition, or other chromene C1-C4, non-irradiated, Table 6)","Change in the coloring degree ΔYI [2, 7]","Durability [2, 7] [%]","Fading rate t1/2 [1, 3] [min]","Fading rate t1/2 ([1]; chromene composition, or other chromene C1-C4, Table 6) [min]","Color-developing sensitivity ([1]; saturated color density/xenon irradiation time, Table 6)"
CC(C)(C)c1cc2ccccc2c2c1C=CC(c1ccccc1)(c1cccs1)O2 (stereo not shown) [Compound 6],480,0.8,1.8,97,–,–,–,–,–,2.8,–,–
COc1ccc(C2(c3ccc(OC)cc3)C=Cc3c(C)cc4cc(-c5ccccc5)ccc4c3O2)cc1 [Compound 37],512,1.3,2.5,97,–,–,–,–,–,7.2,–,–
"C1=CC(c2ccccc2)(c2ccccc2)Oc2ccc3ccccc3c21 [Compound C4, 3,3-Diphenyl-3H-benzo(f)chromene, reference compound]",–,–,–,–,432,0.5,0.01,5.0,95,–,1.0,0.2 -/min.
"COc1ccc(C2(c3ccc(OC)cc3)C=Cc3ccc4ccccc4c3O2)cc1 [a, reference compound]",492,1.3,2.5,97,–,–,–,–,–,> 30,–,–
COc1ccc(C2(c3ccc(OC)cc3)C=Cc3c(C(C)C)cc4ccccc4c3O2)cc1 [Compound 13],500,0.8,1.5,97,–,–,–,–,–,3.3,–,–
CC(C)c1cc2ccccc2c2c1C=CC(c1ccccc1)(c1ccc(OC(F)(F)F)cc1)O2 (stereo not shown) [Compound 16],470,0.9,1.2,99,–,–,–,–,–,5.2,–,–

# Further lines, with some results ahead:
"Maximum absorption wavelength λmax [1, 3] [nm]","Color density ε(120)-ε(0) [1, 4]","Change in the coloring degree ΔYI [2, 5]","Light resistance (durability) [2, 6] [%]","λ max ([1]; chromene composition, or other chromene C1-C4, 0.04% by weight in polymer, Table 6) [nm]","Color density ε(120)-ε(0) ([1]; chromene composition, or other chromene C1-C4, 120 seconds, Table 6)","Initial color ε(0) ([1]; chromene composition, or other chromene C1-C4, non-irradiated, Table 6)","Change in the coloring degree ΔYI [2, 7]","Durability [2, 7] [%]",SMILES,"Fading rate t1/2 [1, 3] [min]","Fading rate t1/2 ([1]; chromene composition, or other chromene C1-C4, Table 6) [min]","Color-developing sensitivity ([1]; saturated color density/xenon irradiation time, Table 6)"
512,1.0,2.7,96,–,–,–,–,–,COc1ccc(C2(c3cccs3)C=Cc3c(C)cc4ccccc4c3O2)cc1 (stereo not shown) [Compound 32],6.5,–,–
488,1.2,6.5,80,–,–,–,–,–,"CCOC(=O)C1=CC(c2ccccc2)(c2ccccc2)Oc2c1cc(C)c1ccccc21 [b, reference compound]",14,–,–
502,1.1,2.4,97,–,–,–,–,–,COc1ccc(C2(c3ccc(OC)c(F)c3)C=Cc3c(C)cc4ccccc4c3O2)cc1 (stereo not shown) [Compound 34],6.5,–,–
440,0.4,4.0,80,–,–,–,–,–,CC(C)(C)c1cc2ccccc2c2c1C=CC1(O2)C2(Cl)CCC1(Cl)CC2 (stereo not shown) [Compound 20],1.3,–,–
446,0.6,6.0,96,–,–,–,–,–,"CCOC(=O)c1c2c(c3ccccc3c1C)OC1(C=C2)C2CCCC1CCC2 (stereo not shown) [f, reference compound]",4.1,–,–
498,0.9,2.3,98,–,–,–,–,–,CCCc1cc2ccccc2c2c1C=CC(c1ccc(OC)cc1)(c1ccc(OC)cc1)O2 [Compound 35],4.5,–,–
524,1.0,2.5,96,–,–,–,–,–,CCOc1ccc(C2(c3ccc(OC)cc3)C=Cc3c(CC)cc4c(Cc5ccccc5)cccc4c3O2)cc1 (stereo not shown) [Compound 39],5.8,–,–
